Reference: PubChem BioAssay (NCI)
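96-well plates; 48 h exposure; 5 concentrations. Endpoints by linear interpolation between flanking doses. Not reached: highest tested concentration assigned. Definition used: TGI = concentration required for complete inhibition of growth.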

Legend:
Assay in all cases: growth of human tumour cells (NCI), 48 h
NCI-H23 lung = test system: NCI-H23 lung
PC-3 prostate = test system: PC-3 prostate
UACC-62 melanoma = test system: UACC-62 melanoma
NCI/ADR-RES ovarian = test system: NCI/ADR-RES ovarian
RPMI-8226 leukemia = test system: RPMI-8226 leukemia
HOP-92 NSCLC = test system: HOP-92 NSCLC
MDA-MB-435 = test system: MDA-MB-435
OVCAR-3 ovarian = test system: OVCAR-3 ovarian
SF-268 CNS = test system: SF-268 CNS
HCT-15 colon = test system: HCT-15 colon

## C=C(Cl)/C(=C\Cl)CCC(Br)C(C)C (stereo not drawn)
NCI-H23 lung
  TGI: > 100 µM
PC-3 prostate
  TGI: > 100 µM
UACC-62 melanoma
  TGI: > 100 µM
NCI/ADR-RES ovarian
  TGI: > 100 µM
RPMI-8226 leukemia
  TGI: > 100 µM
HOP-92 NSCLC
  TGI: > 100 µM
MDA-MB-435
  TGI: > 100 µM
OVCAR-3 ovarian
  TGI: > 100 µM
SF-268 CNS
  TGI: > 100 µM

## COC(=O)c1c(C)cccc1/C=C1/Cc2c(C)cccc2C1=O
NCI-H23 lung
  TGI: > 100 µM
PC-3 prostate
  TGI: > 100 µM
UACC-62 melanoma
  TGI: > 100 µM
NCI/ADR-RES ovarian
  TGI: > 100 µM
RPMI-8226 leukemia
  TGI: 8.51 µM
HOP-92 NSCLC
  TGI: > 100 µM
MDA-MB-435
  TGI: > 100 µM
HCT-15 colon
  TGI: > 100 µM
OVCAR-3 ovarian
  TGI: > 100 µM
SF-268 CNS
  TGI: > 100 µM

## CC(CC(C#N)(c1ccccc1)c1ccccc1)N1CCCCC1 (stereo not drawn)
NCI-H23 lung
  TGI: > 100 µM
PC-3 prostate
  TGI: > 100 µM
UACC-62 melanoma
  TGI: 59.1 µM
NCI/ADR-RES ovarian
  TGI: > 100 µM
RPMI-8226 leukemia
  TGI: 40.7 µM
HOP-92 NSCLC
  TGI: > 100 µM
MDA-MB-435
  TGI: 49.4 µM
HCT-15 colon
  TGI: 68.6 µM
OVCAR-3 ovarian
  TGI: 44.5 µM
SF-268 CNS
  TGI: > 100 µM

## c1ccc2c(c1)[nH]c1nc3cc(-c4ccc5nc6c(nc5c4)[nH]c4ccccc46)ccc3nc12
NCI-H23 lung
  TGI: > 100 µM
PC-3 prostate
  TGI: > 100 µM
UACC-62 melanoma
  TGI: > 100 µM
RPMI-8226 leukemia
  TGI: > 100 µM
HOP-92 NSCLC
  TGI: > 21.5 µM
MDA-MB-435
  TGI: > 100 µM
HCT-15 colon
  TGI: > 32.3 µM
SF-268 CNS
  TGI: > 100 µM

## CCN(CC)CCNc1ccc2nnn3c4ccc(OC)cc4c(=O)c1c23
NCI-H23 lung
  TGI: 20.9 µM
UACC-62 melanoma
  TGI: 25.7 µM
RPMI-8226 leukemia
  TGI: 14.9 µM
HOP-92 NSCLC
  TGI: 19.5 µM
HCT-15 colon
  TGI: 18.7 µM
OVCAR-3 ovarian
  TGI: 31.4 µM
SF-268 CNS
  TGI: 20.6 µM

## CCC(C(=O)O)c1ccc(OCc2ccccc2)cc1 (stereo not drawn)
NCI-H23 lung
  TGI: > 100 µM
UACC-62 melanoma
  TGI: > 100 µM
RPMI-8226 leukemia
  TGI: > 100 µM
HOP-92 NSCLC
  TGI: > 100 µM
OVCAR-3 ovarian
  TGI: > 100 µM
SF-268 CNS
  TGI: > 100 µM

## NC(=O)C(=O)N/N=C1/c2ccccc2CC1C1(O)C(=O)Nc2c(Cl)cc(Cl)cc21 (stereo not drawn)
NCI-H23 lung
  TGI: > 100 µM
UACC-62 melanoma
  TGI: > 100 µM
RPMI-8226 leukemia
  TGI: > 100 µM
HOP-92 NSCLC
  TGI: > 100 µM
HCT-15 colon
  TGI: > 100 µM
OVCAR-3 ovarian
  TGI: > 100 µM
SF-268 CNS
  TGI: > 100 µM

## COc1cc(OCc2ccc3oc(=O)c(-c4ccccc4)nc3c2)cc(OC)c1OC
NCI-H23 lung
  TGI: > 100 µM
PC-3 prostate
  TGI: > 100 µM
UACC-62 melanoma
  TGI: > 100 µM
NCI/ADR-RES ovarian
  TGI: > 100 µM
RPMI-8226 leukemia
  TGI: > 100 µM
MDA-MB-435
  TGI: > 100 µM
HCT-15 colon
  TGI: > 100 µM
OVCAR-3 ovarian
  TGI: > 100 µM
SF-268 CNS
  TGI: > 100 µM

## COc1cc(/C=C/C(=O)O)ccc1C(=O)O/C=C/c1ccccc1
NCI-H23 lung
  TGI: > 100 µM
UACC-62 melanoma
  TGI: > 100 µM
NCI/ADR-RES ovarian
  TGI: > 100 µM
RPMI-8226 leukemia
  TGI: > 100 µM
HOP-92 NSCLC
  TGI: > 100 µM
HCT-15 colon
  TGI: > 100 µM
OVCAR-3 ovarian
  TGI: > 100 µM
SF-268 CNS
  TGI: > 100 µM

## COCOc1ccc(OC)cc1
NCI-H23 lung
  TGI: > 100 µM
UACC-62 melanoma
  TGI: > 100 µM
NCI/ADR-RES ovarian
  TGI: > 100 µM
RPMI-8226 leukemia
  TGI: > 100 µM
HOP-92 NSCLC
  TGI: > 100 µM
HCT-15 colon
  TGI: > 100 µM
OVCAR-3 ovarian
  TGI: > 100 µM
SF-268 CNS
  TGI: > 100 µM

## CCC[C@H]1C(=O)N=C(N)N1C(=O)OCc1ccccc1
NCI-H23 lung
  TGI: > 100 µM
PC-3 prostate
  TGI: > 100 µM
UACC-62 melanoma
  TGI: > 100 µM
NCI/ADR-RES ovarian
  TGI: > 100 µM
RPMI-8226 leukemia
  TGI: > 100 µM
MDA-MB-435
  TGI: > 100 µM
HCT-15 colon
  TGI: > 100 µM
OVCAR-3 ovarian
  TGI: > 100 µM
SF-268 CNS
  TGI: > 100 µM

## C/C(=C\c1ccccc1)C(=O)CCN1CCOCC1
NCI-H23 lung
  TGI: 32 µM
UACC-62 melanoma
  TGI: 32.6 µM
NCI/ADR-RES ovarian
  TGI: 50.5 µM
RPMI-8226 leukemia
  TGI: 20.6 µM
HOP-92 NSCLC
  TGI: 37.1 µM
HCT-15 colon
  TGI: 32.6 µM
OVCAR-3 ovarian
  TGI: 34.2 µM
SF-268 CNS
  TGI: > 85.6 µM

## Nc1nn2c(C(Br)Br)cc(C(Br)Br)nc2c1[N+](=O)[O-]
NCI-H23 lung
  TGI: 4.61 µM
PC-3 prostate
  TGI: 2.73 µM
UACC-62 melanoma
  TGI: 4.06 µM
NCI/ADR-RES ovarian
  TGI: > 34 µM
RPMI-8226 leukemia
  TGI: 1.72 µM
MDA-MB-435
  TGI: 1.76 µM
HCT-15 colon
  TGI: 2.34 µM
SF-268 CNS
  TGI: 4.8 µM

## COc1cc(C2c3cc4c(cc3OC(NN=C(C)C)C2C)OCO4)cc(OC)c1O (stereo not drawn)
NCI-H23 lung
  TGI: > 100 µM
PC-3 prostate
  TGI: > 100 µM
UACC-62 melanoma
  TGI: > 100 µM
NCI/ADR-RES ovarian
  TGI: > 100 µM
RPMI-8226 leukemia
  TGI: 31.2 µM
HOP-92 NSCLC
  TGI: > 100 µM
HCT-15 colon
  TGI: > 100 µM
OVCAR-3 ovarian
  TGI: > 100 µM
SF-268 CNS
  TGI: > 100 µM

## O=C(NC(Cc1c[nH]c2ccccc12)C(=O)O)/C(=C/c1ccccc1O)NC(=O)c1ccccc1 (stereo not drawn)
NCI-H23 lung
  TGI: > 100 µM
UACC-62 melanoma
  TGI: > 100 µM
NCI/ADR-RES ovarian
  TGI: 39.7 µM
RPMI-8226 leukemia
  TGI: > 100 µM
HOP-92 NSCLC
  TGI: 75.5 µM
MDA-MB-435
  TGI: > 100 µM
HCT-15 colon
  TGI: > 100 µM
SF-268 CNS
  TGI: 45.6 µM

## CCOP(=O)(OCC)C1C(CO)OC(n2ccc(=O)[nH]c2=O)C1O (stereo not drawn)
PC-3 prostate
  TGI: > 100 µM
UACC-62 melanoma
  TGI: > 100 µM
RPMI-8226 leukemia
  TGI: > 100 µM
HOP-92 NSCLC
  TGI: > 100 µM
HCT-15 colon
  TGI: > 100 µM
OVCAR-3 ovarian
  TGI: > 100 µM
SF-268 CNS
  TGI: > 100 µM

## CC(C)(C)N=c1n(C(C)(C)C)oc(=O)n1C(C)(C)C
NCI-H23 lung
  TGI: > 100 µM
PC-3 prostate
  TGI: > 100 µM
UACC-62 melanoma
  TGI: > 100 µM
NCI/ADR-RES ovarian
  TGI: > 100 µM
HOP-92 NSCLC
  TGI: > 100 µM
HCT-15 colon
  TGI: > 100 µM
OVCAR-3 ovarian
  TGI: > 100 µM

## O=C(CN1CCCCC1)CC(O)(C(F)(F)F)C(F)(F)F
NCI-H23 lung
  TGI: > 100 µM
PC-3 prostate
  TGI: > 100 µM
UACC-62 melanoma
  TGI: > 100 µM
NCI/ADR-RES ovarian
  TGI: > 100 µM
RPMI-8226 leukemia
  TGI: > 100 µM
HOP-92 NSCLC
  TGI: > 100 µM
MDA-MB-435
  TGI: > 100 µM
HCT-15 colon
  TGI: > 100 µM
OVCAR-3 ovarian
  TGI: > 100 µM

## CN(C)c1ccc(-c2c(C#N)c(S)n(NS(=O)(=O)c3ccccc3)c(=O)c2C#N)cc1
NCI-H23 lung
  TGI: > 100 µM
PC-3 prostate
  TGI: > 100 µM
UACC-62 melanoma
  TGI: > 100 µM
NCI/ADR-RES ovarian
  TGI: 49.5 µM
RPMI-8226 leukemia
  TGI: 91 µM
HOP-92 NSCLC
  TGI: > 100 µM
MDA-MB-435
  TGI: 92.6 µM
HCT-15 colon
  TGI: 57.7 µM
OVCAR-3 ovarian
  TGI: > 100 µM

## Cc1nn(C(=O)Cc2ccccc2)c2c1C(c1ccccc1O)SC(N)=N2 (stereo not drawn)
NCI-H23 lung
  TGI: > 100 µM
PC-3 prostate
  TGI: > 100 µM
UACC-62 melanoma
  TGI: > 100 µM
RPMI-8226 leukemia
  TGI: > 100 µM
MDA-MB-435
  TGI: > 100 µM
HCT-15 colon
  TGI: > 100 µM
SF-268 CNS
  TGI: > 100 µM

## CC1(C)O[C@@H]2COC(=O)[C@@H]2O1
NCI-H23 lung
  TGI: > 100 µM
PC-3 prostate
  TGI: > 100 µM
UACC-62 melanoma
  TGI: > 100 µM
NCI/ADR-RES ovarian
  TGI: > 100 µM
HOP-92 NSCLC
  TGI: > 100 µM
MDA-MB-435
  TGI: > 100 µM
HCT-15 colon
  TGI: > 100 µM
OVCAR-3 ovarian
  TGI: > 100 µM
SF-268 CNS
  TGI: > 100 µM

## CN(C)NC(=S)Nc1ccccc1Br
NCI-H23 lung
  TGI: > 100 µM
PC-3 prostate
  TGI: > 100 µM
UACC-62 melanoma
  TGI: > 100 µM
NCI/ADR-RES ovarian
  TGI: > 100 µM
RPMI-8226 leukemia
  TGI: > 100 µM
HOP-92 NSCLC
  TGI: > 100 µM
MDA-MB-435
  TGI: > 100 µM
HCT-15 colon
  TGI: > 100 µM
OVCAR-3 ovarian
  TGI: > 100 µM

## COc1ccc(CC(CO)NC(=O)OCc2ccccc2)cc1Oc1ccc(CC(CO)NC(=O)OCc2ccccc2)cc1 (stereo not drawn)
NCI-H23 lung
  TGI: 33.8 µM
PC-3 prostate
  TGI: 27.1 µM
UACC-62 melanoma
  TGI: 29.5 µM
RPMI-8226 leukemia
  TGI: 30.9 µM
HOP-92 NSCLC
  TGI: 46.1 µM
MDA-MB-435
  TGI: > 100 µM
HCT-15 colon
  TGI: > 100 µM
OVCAR-3 ovarian
  TGI: 27.4 µM
SF-268 CNS
  TGI: 29.4 µM

## CCCCOC(C)(C)/C=C/C(O)[C@](C)(O)[C@H]1[C@H](O)C[C@@]2(C)[C@@H]3CCc4c(cc(OC5OC(CO)C(O)C(O)C5O)c(O)c4C)C3(C)C(=O)C[C@]12C (stereo partly drawn)
NCI-H23 lung
  TGI: > 100 µM
PC-3 prostate
  TGI: > 100 µM
UACC-62 melanoma
  TGI: > 100 µM
NCI/ADR-RES ovarian
  TGI: > 100 µM
HOP-92 NSCLC
  TGI: > 100 µM
MDA-MB-435
  TGI: > 100 µM
HCT-15 colon
  TGI: > 100 µM
OVCAR-3 ovarian
  TGI: > 100 µM
SF-268 CNS
  TGI: > 100 µM

## COC(=O)NN(C(=O)OC)c1c(-c2ccccc2)nc(SC)n1N
NCI-H23 lung
  TGI: > 100 µM
PC-3 prostate
  TGI: > 100 µM
UACC-62 melanoma
  TGI: > 100 µM
NCI/ADR-RES ovarian
  TGI: > 100 µM
RPMI-8226 leukemia
  TGI: > 100 µM
MDA-MB-435
  TGI: > 100 µM
HCT-15 colon
  TGI: > 100 µM
OVCAR-3 ovarian
  TGI: > 100 µM
SF-268 CNS
  TGI: > 100 µM
